“And” between values parts separate entries of the source, which are not always exact repeats. Identical values can stand only once. Counter-ions that a name gives are not always drawn.
Legend:
patient with ARG = test: Case reports: patients with ARG treated with GABAnergic agents prior to sleep; format: in vivo, human
Excerpt: The patient was then switched to monotherapy using only NaGHB 4.5 grams prior to the intended sleep time and a second dose of 4.5 grams four hours after the first. […] The patient was switched back to treatment with multiple GABAnergic agents and again had dramatic reduction in fatigue. On a scale from 0 to 10 where 10 is the most tired, the patient rated the fatigue at 10 without treatment, 3 to 4 with treatment on multiple GABAnergic agents, and 10 on monotherapy with NaGHB.
A patient with ARG was treated with the Class IV agent zolpidem 10 mg, The Class III agent alprazolam 2 mg, the Class V agent gabapentin 200 mg, and the Class II agent sodium salt of gamma-hydroxyl butyrate 5.25 grams prior to sleep. The patient was treated chronically on a nightly basis. Sometimes, according to the patient's judgement, 3.75 grams of the sodium salt of gamma-hydroxyl butyric acid was consumed upon awakening, which usually was about six hours after the first dose of medications.
In another example a patient with ARG was given the Class I agent 660 ml red wine 13.5% alcohol by volume, the Class III agent alprazolam 3 mg, the Class V agent gabapentin 300 mg, and the Class IV agent 10 mg zolpidem. Five hours later, the patient was awoken and given the Class II agent the sodium salt of gamma-hydroxyl butyric acid 3 grams.
In another example a patient with ARG was treated with the Class I agent 660 ml red wine 13.5% alcohol by volume, the Class I agent liqeur 30% alcohol by volume 200 ml, the Class III agent alprazolam 2 mg, the […] 200 mg, and the Class II agent the sodium salt of gamma-hydroxyl butyric acid 4 grams prior to sleep.
A patient with acquired resistance to GABAnergic agents was treated with the Class III agent alprazolam 2 mg, the Class IV agent zolpidem 10 mg, the Class V agent gabapentin 200 mg, and the Class II agent NaGHB 7 grams. […] 7 grams NaGHB as a single dose is a large dose, which may be too toxic for some patients.
A patient with acquired resistance to GABAnergic agents was treated with the Class I agent red wine 660 ml 13.5% alcohol by volume, then the Class III agent alprazolam 3 mg, the Class V agent gabapentin 300 mg, the Class IV agent zolpidem 10 mg, and the Class II agent NaGHB 9 grams. 4 hours after sleep onset the patient awoke in a neighboring room in a pool of vomitus of partially digested wine. The patient was lucid and had mild nausea. The patient went back to sleep in bed for an additional 2 hours and was able to work the next day. […] The combination of red wine and such large doses of GHB are not typically recommended by the inventor and can be fatal.
A patient with ARG was given the Class III agent alprazolam 7 mg, the Class IV agent zolpidem 10 mg, and the Class V agent gabapentin 300 mg prior to sleep. […] The dose of alprazolam may be reduced by adding a Class I or Class II agent to the regimen.
A patient with ARG who had minimal obstructive sleep apnea was chronically treated with the Class I agent red wine about 200 to 1500 ml 13.5% alcohol by volume, the Class IV agent zolpidem 10 mg, the Class III agent alprazolam 3 mg, and the Class V agent gabapentin 300 mg prior to sleep. Sufficient wine was consumed to produce moderate to strong sleepiness and then the other GABAminergic medications were consumed. When the volume of wine on a particular night required to induce strong sleepiness was inconvenient, the patient quickly drank liqeur 30% alcohol by volume, typically about 160 ml, in order to induce strong sleepiness.
A patient with ARG who had minimal obstructive sleep apnea was chronically treated with the Class I agent red wine about 660 to 1500 ml about 13% alcohol by volume, the Class IV agent zolpidem 10 mg, the Class III agent alprazolam 3 mg, and the Class V agent gabapentin 300 mg prior to sleep. Sufficient wine was consumed to produce moderate to strong sleepiness and then the other GABAnergic medications were consumed. […]

pH of NaGHB solution = format: physicochemical; conditions: 240 mg per ml
Procedure: The pH of NaGHB at 240 mg per ml is approximately 9.5, at which neither pathogenic nor non-pathogenic organisms grow. As the concentration of NaGHB is increased, the pH is yet higher. […] Concentrated NaGHB is highly toxic regardless of pH and must be diluted prior to consumption. The pH of NaGHB at 500 mg/ml drops rapidly into the physiologic range upon dilution. Highly concentrated GBL and 1,4-butanediol are known to be resistant to microbial growth, require no special storage procedures, and likewise must be diluted prior to consumption, typically to 5% to 30% solutions but more preferably 5% to 20%.

[1] = system: patients with fibromyalgia or chronic fatigue syndrome; conditions: cited from earlier work
[2] = system: patients with fibromyalgia; conditions: 3 grams NaGHB at bedtime and a second dose about 4 h later; cited from earlier work
human subjects = test: 4-HPA and 4-HPA lactone administered to human subjects (Example 53); conditions: for effects experienced by the subjects: at equivalent doses of GHB toxicity or sleep would have occurred
[3] = system: patient with a sleeping disorder; test: Case report: patient with a sleeping disorder treated with alprazolam, zolpidem, gabapentin and NaGHB (Example 86); format: in vivo, human
Procedure: Overnight polysomnography had shown minimal obstructive sleep apnea with 2 apneas per hour of sleep. The patient was placed on a regimen of the Class III agent alprazolam, the Class IV agent zolpidem, the Class V agent gabapentin, and the Class II agent the sodium salt of gamma-hydroxyl butyric acid (GHB), which were administered prior to sleep for the treatment of sleeping disorders. The initial dose of GHB was prescribed as 2.25 grams prior to sleep and repeat dose of 2.25 grams to be taken 2.5 to 4 hours after sleep onset.
At a dose of 3 grams prior to sleep and a second dose upon awakening, the patient was eating only one to two small meals per day. Their maximum previous weight had been 169 lbs and their baseline weight was 159 pounds. They lost weight down to 145 lbs and looked gaunt. They believed that the GHB had suppressed their appetite and consulted an endocrinologist, who did a thorough medical evaluation including an am cortisol, a comprehensive chemistry profile, a CBC, and thyroid studies, all of which were normal. The patient discontinued the GHB and their appetite returned within two days. Over roughly five months, they then gained weight up to 195 lbs and their weight remained stable.

[4] = Chemical stability of GHB as a function of pH (cyclization to GBL); format: physicochemical
patients = conditions: therapeutic doses, GHB as lone agent; cited from earlier work
GHB receptor = conditions: reported in United States patent application 20020132846; cited from earlier work

## O=C(O)CCCO [NaGHB, sodium salt of gamma-hydroxyl butyric acid]
Patient with ARG; NaGHB 4.5 grams twice per sleep period, no other GABAnergic agent
  improvement on monotherapy: no improvement
Patient with ARG; monotherapy, NaGHB 4.5 grams prior to the intended sleep time
  sleep induction by the first dose: did not induce sleep at all
Patient with ARG; monotherapy, second dose of 4.5 grams four hours after the first
  duration of sleep induced by the second dose: two
Patient with ARG; patient with ARG on the regimen
  side effects / toxicity: state of near stupor
Patient with ARG; scale from 0 to 10 where 10 is the most tired, 10 without treatment
  fatigue rated by the patient: 10
pH of NaGHB solution
  pH of the solution: approximately 9.5
[1]; 2.25 grams NaGHB at bedtime and again four hours later, in some instances
  sleep obtained per dose: 2 to 3 h
[1]; pilot open label trial, quoted from document C
  effect in patients diagnosed with chronic fatigue syndrome: no effect
[2]
  patients in the treatment arm who withdrew due to side effects: Six of 24

## cyanocobalamin
Patient with ARG; 2000 mcg IM about every three days, in addition to multiple GABAnergic agents
  fatigue on the increased dose of cyanocobalamin: mild decrease in fatigue
Patient with ARG; cyanocobalamin 500 mcg IM once, 'rotate' 5 mg orally, multivitamin containing thiamine 1.5 mg, patient on Example 90a regimen
  mouth sores under vitamin treatment: resolved

## CC(O)CCC(=O)O (stereo not drawn) [Example 4-HPA, 4-hydroxyl pentanoic acid]
Human subjects
  toxicity compared with GHB: less toxic than GHB
  effects experienced by the subjects: relaxing effects

## O=C(O)CCCO [GHB, gamma hydroxyl butyric acid]
Patient with ARG; 3.75 grams upon awakening, about six hours after the first dose of medications
  sleep induction by the second dose of GHB: usually did not induce sleep
[3]; 3.75 grams upon awakening
  sleep induction by the second dose of GHB: usually did not induce sleep
[3]; baseline weight 159 pounds, 3 grams prior to sleep and a second dose upon awakening
  body weight on treatment: 145 lbs
[3]; during weight loss on GHB
  medical evaluation (am cortisol, comprehensive chemistry profile, CBC, thyroid studies): normal
[3]; human, in vivo
  time to return of appetite after discontinuing GHB: two
[3]; within one week of beginning to take the GHB
  appetite: marked decrease in appetite
[4]
  pH at which gamma-butyryl lactone (cyclized form) begins to form: ≤ 6
patients
  duration of the sleep inducing effect: 2 to 3 h and 2 to 4 h

## CC1CCC(=O)O1 (stereo not drawn) [4-HPA lactone, 4-hydroxyl pentanoic acid lactone]
GHB receptor
  binding to the GHB receptor: bind the GHB receptor
Human subjects
  toxicity compared with GHB: less toxic than GHB
  effects experienced by the subjects: relaxing effects
